What all share (assay): Bliss excess, mean over the matrix (fraction); higher = more synergy
The test system of assay [1] is KM12 (Colorectal Carcinoma). The essentials:
(§1)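 Cell lines in DMEM/F12 or RPMI with 10% FBS were plated in 1536-well plates, held 24 hours at 37°C, 5% CO2, then given two-drug dose matrices for 72 hours (DMSO typically 0.2%). Viability was read by CellTiter-Glo 2.0 luminescence and scaled as inhibition from 0 (vehicle wells) to 1 (blank wells). Combination Emax is the second-highest inhibition in the matrix; Bliss excess is observed combination effect minus expected EA + EB − EA·EB, EA and EB being single-agent effects.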

The subject of another assay is WIL2-NS (Non-Cancerous). In a few lines: as §1
For the next assay, the system named is LN-18 (Glioblastoma). The essentials:
as §1

Assay [2] has as its system DND-41 (T-Lymphoblastic Leukemia). In a few lines: as §1
The test system of assay [3] is TE-6 (Esophageal Squamous Cell Carcinoma). In a few lines:
as §1

The subject of assay [4] is MFM-223 (Breast Carcinoma). The essentials: as §1
Assay [5] deals with NCI-H847 (Small Cell Lung Carcinoma). In a few lines: as §1
Assay [6] has as its system SW1417 (Colorectal Carcinoma). In a few lines: as §1
The subject of another assay is MEL-JUSO (Melanoma). The essentials: as §1
Assay [7] has as its system PANC-08-13 (Pancreatic Carcinoma). The essentials:
as §1

Assay [8] concerns NCI-H1792 (Lung Adenocarcinoma). The essentials: as §1
The next assay relates to CHP-212 (Neuroblastoma). The essentials:
as §1

Assay [9] has as its system KYSE-180 (Esophageal Squamous Cell Carcinoma). In a few lines:
as §1

In assay [10] the test system is CAMA-1 (Breast Carcinoma). The essentials:
as §1

The test system of assay [11] is DiFi (Colorectal Carcinoma). The essentials:
as §1

For assay [12], the system named is TOV-112D (Ovarian Carcinoma). The essentials: as §1
The subject of assay [13] is BL-41 (Burkitt's Lymphoma). The essentials:
as §1

Assay [14] relates to MKN28 (Gastric Carcinoma). In a few lines:
as §1

The subject of a further assay is TC-71 (Ewing's Sarcoma). In a few lines:
as §1

The test system of assay [15] is COLO-678 (Colorectal Carcinoma). The essentials:
as §1

With `CN(C)CCCOc1ccc(-c2ccc3ncc4c(c3c2)n(C2CCOCC2)c(=O)n4C)cn1` [AZD0156] + CCN(CCO)CCCOc1ccc2c(Nc3cc(CC(=O)Nc4cccc(F)c4)[nH]n3)ncnc2c1 [AZD2811] (first compound max 1 µM, 7x7, partner max 1 µM), the Bliss excess was -0.0163 in [1]; -0.003 in the assay with WIL2-NS (Non-Cancerous); 0.0009 in the assay on LN-18 (Glioblastoma); 0.0072 in assay [2]; 0.0127 in [3]; 0.0113 in [4]. For the same compound, the Bliss excess was -0.0122 in [5]; -0.0418 in [6]; -0.0039 in the assay with MEL-JUSO (Melanoma); -0.0461 in assay [7]; -0.0032 in assay [8]; -0.0254 with CHP-212 (Neuroblastoma). Further, the Bliss excess is -0.0153 in assay [9]; -0.0318 in assay [10]; -0.0363 in [11]; -0.0025 in assay [12]; 0.0177 in [13]; -0.0295 in assay [14]. For the same compound, the figures for the Bliss excess (in the assay on TC-71 (Ewing's Sarcoma); in assay [15]) were 0.0495 and -0.0179, respectively.
Regarding `NC1(C(=O)N[C@@H](CCO)c2ccc(Cl)cc2)CCN(c2ncnc3[nH]ccc23)CC1` [Capivasertib] + Cn1cnc2c(F)c(Nc3ccc(Br)cc3Cl)c(C(=O)NOCCO)cc21 [Selumetinib] (first compound max 10 µM, 7x7, partner max 10 µM), the Bliss excess in assay [1] came to 0.016; with WIL2-NS (Non-Cancerous), 0.0482; in the assay on LN-18 (Glioblastoma), 0.0373; in assay [2], 0.0293; in assay [3], 0.0032; in assay [4], 0.0276. Further, the Bliss excess in [6] is 0.0152; in the assay with MEL-JUSO (Melanoma), 0.0315; in [7], 0.0495; in assay [8], 0.0276; in the assay on CHP-212 (Neuroblastoma), -0.0277; in assay [9], -0.0307. The Bliss excess was 0.0187 in assay [10]; 0.0049 in assay [11]; 0.0272 in [12]; 0.0106 in assay [13]; -0.05 in assay [14]; 0.0203 with TC-71 (Ewing's Sarcoma). Moreover, the Bliss excess in assay [15] was -0.0398.
Take `Cn1cnc2c(F)c(Nc3ccc(Br)cc3Cl)c(C(=O)NOCCO)cc21` [Selumetinib] + C[C@@H]1COCCN1C2=NC(=NC(=C2)C3(CC3)[S@](=N)(=O)C)C4=C5C=CNC5=NC=C4 [AZD6738] (first compound max 10 µM, 7x7, partner max 10 µM): the Bliss excess in assay [1] is 0.0286; with WIL2-NS (Non-Cancerous) it was -0.033; in the assay on LN-18 (Glioblastoma), -0.0318; in assay [2] it was -0.0233; in assay [3] it was 0.0221; in assay [4], -0.0412. Moreover, the Bliss excess in assay [6] was 0.0363; in the assay with MEL-JUSO (Melanoma) it was 0.0935; in assay [7], -0.0351; in [8] it was -0.0049; in the assay on CHP-212 (Neuroblastoma), -0.0474; in [9] it was -0.0249. In addition, the Bliss excess was -0.0506 in assay [10]; 0.0092 in assay [11]; -0.0377 in [12]; -0.0299 in assay [13]; -0.0316 in [14]; -0.022 in the assay with TC-71 (Ewing's Sarcoma). Also, the Bliss excess in assay [15] was determined as 0.132.
For `NC1(C(=O)N[C@@H](CCO)c2ccc(Cl)cc2)CCN(c2ncnc3[nH]ccc23)CC1` [Capivasertib] + CC(=O)c1c(C)c2cnc(Nc3ccc(N4CCNCC4)cn3)nc2n(C2CCCC2)c1=O [Palbociclib] (first compound max 10 µM, 7x7, partner max 10 µM), the Bliss excess in assay [1] is 0.0176; in the assay on WIL2-NS (Non-Cancerous) it was -0.0049; in the assay with LN-18 (Glioblastoma), 0.0368; in [2], -0.0146; in [3] it was -0.0195; in [4] it was 0.0091. Also, the Bliss excess was 0.0067 in [6]; -0.0137 in the assay with MEL-JUSO (Melanoma); -0.0151 in assay [7]; 0.0419 in assay [8]; 0.0311 with CHP-212 (Neuroblastoma); 0.0645 in [9]. Moreover, the Bliss excess in [10] is 0.052; in [11], -0.0394; in [12], 0.0029; in [13] it was -0.0275; in assay [14], -0.0459; in the assay on TC-71 (Ewing's Sarcoma), 0.0341. For the same compound, the Bliss excess in [15] is -0.0295.
`CCc1c2c(nc3ccc(O)cc13)-c1cc3c(c(=O)n1C2)COC(=O)[C@]3(O)CC` [SN-38] + O=C(c1cc(Cc2n[nH]c(=O)c3ccccc23)ccc1F)N1CCN(C(=O)C2CC2)CC1 [Olaparib] (first compound max 0.3 µM, 7x7, partner max 10 µM): the Bliss excess is -0.0102 in assay [1]; 0.0736 in the assay with WIL2-NS (Non-Cancerous); 0.0343 in [2]; 0.0054 in assay [4]; 0.0304 in assay [5]; 0.0174 in assay [6]. Further, the Bliss excess in assay [7] was -0.0202; in [8], 0.0361; in assay [9], 0.0458; in assay [10], 0.0287; in assay [11] it was 0.0423; in [12], 0.0453. For the same compound, the results for the Bliss excess in assay [13], in assay [14] and in [15] were 0.0462, 0.0385 and 0.0487, respectively.
For `CS(=O)(=O)CCNCc1ccc(-c2ccc3ncnc(Nc4ccc(OCc5cccc(F)c5)c(Cl)c4)c3c2)o1` [Lapatinib] + C[C@@H](Oc1cc(-c2cnn(C3CCNCC3)c2)cnc1N)c1c(Cl)ccc(F)c1Cl [Crizotinib] (first compound max 10 µM, 7x7, partner max 10 µM), the Bliss excess was -0.0327 in [1]; -0.0273 with WIL2-NS (Non-Cancerous); -0.0342 in the assay on LN-18 (Glioblastoma); -0.0272 in assay [2]; -0.0111 in assay [3]; 0.0148 in [4]. For the same compound, the Bliss excess was -0.0165 in assay [6]; -0.034 in the assay with MEL-JUSO (Melanoma); -0.0246 in assay [7]; -0.0342 in [8]; -0.0741 in the assay on CHP-212 (Neuroblastoma); 0.0476 in assay [9]. Moreover, the Bliss excess in assay [10] is -0.0178; in assay [11] it was 0.0187; in assay [12], 0.0028; in [13], -0.0236; in assay [14], -0.0477; in the assay on TC-71 (Ewing's Sarcoma), -0.0079. Also, the Bliss excess in assay [15] is -0.0488.
As to `COc1cc2ncnc(Nc3ccc(F)c(Cl)c3)c2cc1OCCCN1CCOCC1` [Gefitinib] + CC(C)n1c(=O)n(C)c2cnc3cc(F)c(-c4ccc(OCCCN5CCCCC5)nc4)cc3c21 [AZD1390] (first compound max 10 µM, 7x7, partner max 0.3 µM), the Bliss excess was -0.0406 in assay [1]; -0.0241 with WIL2-NS (Non-Cancerous); -0.033 with LN-18 (Glioblastoma); -0.0309 in assay [2]; -0.117 in [3]; -0.0681 in [4]. Besides, the Bliss excess is -0.0456 in assay [6]; -0.0857 with MEL-JUSO (Melanoma); -0.0511 in assay [7]; -0.0422 in assay [8]; -0.0352 in the assay with CHP-212 (Neuroblastoma); -0.0621 in assay [9]. In addition, the Bliss excess in assay [10] was -0.0434; in assay [11] it was -0.0882; in assay [12], -0.0392; in assay [13], 0.003; in assay [14], -0.0498; in the assay on TC-71 (Ewing's Sarcoma), -0.0927. The Bliss excess in [15] is -0.111.

Source of the values: the supplement of paper PMC11061612.
